Test results published in US6335363B1, “Use of inhibitors of the KQTI channel and methods of controlling and treating diseases caused by helminths and ectoparasites” (Aventis Pharma Deutschland GmbH, priority 1998, dated 2002).

The compounds below were run on KQT1 channel (assay: Activity against KQT1 in Xenopus oocytes (two-microelectrode voltage clamp)). Conditions: KQT1 expressed in Xenopus oocytes; slowly activated potassium current.
Type: cell-based, Caenorhabditis elegans
Parameters: dose or concentration left out as unconfirmed
Method: To test the ct of IKS channel blockers on the KQT1 channel, electrophysiological studies were carried out on Xenopus oocytes which express the KQT1 channel (specific IKS channel of the nematode Caenorhabditis elegans). An adult female frog (Xenopus laevis) was […] oocytes of all development stages were removed from the ovarian bags. Oocytes of the development stages V and VI were selected; using a nanoliter injector mounted in a micromanipulator, 10 ng of the KQT1-specific m-RNA were injected into each oocyte. After 1-4 days, sufficient KQT1 channels were expressed for it to be possible to measure the corresponding currents. For measuring the slowly activated potassium currents under constant intracellular conditions, the two-microelectrode voltage clamp method was employed. This method is based on operating with 2 intracellular microelectrodes; the first electrode measures the membrane potential against a reference electrode, the second electrode is used to inject current which is necessary to maintain a desired potential. During the measurement, the holding potential was adjusted to -80 mV, which corresponds to the open-circuit membrane potential. The electrophysiological measuring stand comprised a vibration-damped experiment table on which were mounted a purpose-made measuring chamber, 2 micromanipulators, in each case with a preamplifier and a holder for injection microelectrodes, and a stereomicroscope. The complete measuring stand was surrounded by a Faraday cage to minimize electrical disturbances during the measurement. During the measurement, the oocyte was suspended in a solution of ND96 buffer. To activate the voltage-dependent IKS channel, the oocyte membrane was depolarized by a voltage jump from the holding potential (-80 mV) to 0 mV, and this state was maintained for 10 seconds before the holding potential was reestablished. The time profile of the measuring protocol was repeated every 45 s. During the depolarization phase, the slowly activated potassium current was measured.

SMILES | Inhibition [%]
CCS(=O)(=O)N(C)C1CCCCc2ccc(F)cc21 (stereo not drawn) | 78
CCS(=O)(=O)N(CC(=O)NCCN(C)C)C1CC(C)(C)Oc2ccc(F)cc21 (stereo not drawn) [N-(2-DIMETHYLAMINO- ETHYL)-2-[ETHANE- SULFONYL-(6-FLUORO- 2,2-DIMETHYL-CHROMAN- 4-YL)-AMINO]- ACETAMIDE] | 22
CCS(=O)(=O)N(C)C1CC(C)(C)Oc2cc(Cl)c(F)cc21 (stereo not drawn) [7-CHLORO-4-N- ETHYLSULFONYL-N- METHYLAMINO-6- FLUORO-2,2- DIMETHYLCHROMANE] | 89
CN(C1=CC(C)(C)Oc2ccc(OCCCC(F)(F)F)cc21)S(C)(=O)=O [N-[2,2-DIMETHYL-6-(4,4,4- TRIFLUOROBUTOXY)-2H- CHROMEN-4-YL]-N- METHYL- METHANESULFONAMIDE] | 92
CCS(=O)(=O)N(CCCC(F)(F)F)C1CC(C)(C)Oc2cc(Cl)c(Cl)cc21 (stereo not drawn) [6,7-DICHLORO-4-[N- ETHYLSULFONYL-N- (4,4,4-TRIFLUORO- BUTYL)AMINO]-2,2- DIMETHYLCHROMANE] | 88
CCS(=O)(=O)N(C)C1c2cc(C#N)ccc2OC(C)(C)C1O (stereo not drawn) [6-CYANO-4-TRANS-(N- ETHYLSULFONYL-N- METHYLAMINO)-3 HYDROXY-2,2- DIMETHYLCHROMANE] | 40
CCS(=O)(=O)N(C)C1CC(C)(C)Oc2cc(OC)c(OC)cc21 (stereo not drawn) [4-N-ETHYLSULFONYL-N- METHYLAMINO-6,7 DIMETHOXY-2,2- DIMETHYLCHROMANE] | 30
CCS(=O)(=O)N(CC(=O)NCCN(C)Cc1ccccc1)C1CC(C)(C)Oc2ccc(F)cc21 (stereo not drawn) [N-[2-(BENZYL-METHYL- AMINO)-ETHYL]-2- [ETHANESULFONYL-(6- FLUORO-2,2-DIMETHYL- CHROMAN-4-YL)-AMINO]- ACETAMIDE] | 36
CCS(=O)(=O)N(CC(=O)Nc1ccncc1)C1CC(C)(C)Oc2ccc(F)cc21 (stereo not drawn) [2-[ETHANESULFONYL-(6- FLUORO-2,2-DIMETHYL- CHROMAN-4-YL)-AMINO]- N-PYRIDIN-4-YL- ACETAMIDE] | 35
